Experimental data as given in patent US20240082260A1, “INHIBITOR OF PROTEIN KINASE D FOR USE IN PREVENTION OR TREATMENT OF HYPERLIPIDEMIA” (priority 2021, published 2024).

What was measured:
[1] = system: Caco2 cells; assay: Lipid transport (14C-fatty acid release) through Caco2 monolayer in transwell system; assay type: cell-based, human; settings: 20 μM, 24 h, vs DMSO; FIG. 8
Protocol: Lipid transport studies were assessed in Caco2 cells seeded in trans-wells. 1.5×10^5 cells were seeded into a 12-well cell culture insert of 1 μm pore size Trans-well and maintained in for 14 consecutive days with media change every two days. For the lipids uptake and release, the apical side of the membrane was loaded with radioactive ^14C-palmitic acid (0.2 μCi), oleic acid (1 mM), and taurocholic acid (2 mM) in DMEM high glucose 10% FBS. The basal medium contained DMEM high glucose 0.1% FBS. After 24 hours of incubation, cell lysates and the apical and basolateral medium was collected and the ^14C-palmitic acid was measured in a scintillation counter for aliquots of apical and basal medium and for cell lysate. The same protocol was used in Caco2 cells that were treated with CRT0066101 (3 and 5 μM) for 24 h (added together with the mentioned radioactive fatty acid cocktail).
In order to test the potential of PKD inhibitors to restrict lipid transport via epithelial monolayer, we employed Caco2 cells seeded into the Transwells system. Briefly, we plated 1.5×10^5 cells seeded into a 12-well cell culture inserts of 1-μm pore size Transwell and maintained in for 14 consecutive days with media change every 2 days. For the lipid uptake and release, the apical side of the membrane was loaded with radioactive 14C-palmitic acid (0.2 μCi), oleic acid (1 mM), and taurocholic acid (2 mM) in DMEM high glucose 10% FBS. The basal medium contained DMEM high glucose 0.1% FBS. After 24 h of incubation, cell lysates and the apical and basolateral medium were collected and the 14C-palmitic acid was measured in a scintillation counter for aliquots of apical and basal medium and for cell lysate. To assess the efficiency of different PKD inhibitors, Caco2 cells were treated with either CRT0066101 (5 μM), CID2011756 (20 μM), CID755673 (20 μM), 1-NM-PP1 (20 μM), or control solvent solution (DMSO) for 24 h (added together with the mentioned radioactive FA cocktail).

[2] = system: LDLR-deficient mice; settings: cited from earlier work
[3] = system: male C57BL/6 mice on HFD; assay: Oral PKD inhibitor in HFD-fed C57BL/6 mice (diet-induced obesity and diabetes); assay type: in vivo, mouse; settings: oral administration, mice; also said to prevent hyperlipidemia and diabetes and improve microflora
Protocol: Mice body weight development was closely monitored and reported here on a weekly basis when mice were on a specified diet. All experiments were performed in male mice.
PKD inhibitor CRT0066101 was dissolved in water (10 mg/kg) and administered orally to the mice by daily gavage, while the control mice were gavaged with water. Mice were maintained on the specified diets and had ab libitum access to food and water. C57BL/6 mice were administered CRT inhibitor treatment at 4-weeks of age, while for the rescue experiment, inhibitor was given under the same circumstances but treatment started only after 7 weeks of HFD feeding. Intestinal barrier permeability was further assessed 1 hour after oral gavage of FITC-Dextran 4.
Energy expenditure, food intake, and activity measurements were obtained in a PhenoMaster (TSE Systems) as previously described (El-Merahbi, Viera et al., 2020, Trujillo Viera, El-Merahbi et al., 2016). Briefly, mice were kept in separate metabolic cages with unlimited access to water and to the specified diet. After 48 hours of acclimation, data was collected every 10 min including photobeam breaks, oxygen consumption, carbon dioxide dissipation, and food and water consumption. Results in bars represent the average of each night/day cycle.
A glucose tolerance test (GTT) was performed after overnight fasting. Mice blood glucose was assessed before and 15, 30, 60, 90, and 120 minutes after intraperitoneal injection of glucose (2 g/kg). For the Insulin tolerance test (ITT), the same measurements were performed after 4 hours of fasting and intraperitoneal injection of 0.5 U/kg of recombinant insulin. For glucose measurements, one blood drop was drawn from the tail tip into a test strip and measured with a glucometer (Accu-Chek® Roche).
Lipids tolerance test was performed as described previously (Wang, Rong et al., 2016b). Briefly, overnight fasted mice were gavaged with olive oil (10 μL/g body weight). Blood was collected at indicated times for measurement of serum triglycerides content. For lipids absorption under tyloxapol treatment, 250 μg/g of body weight were i.p. injected to mice 30 minutes before the gavage of olive oil 5 μL/g body weight.
Liver triglycerides were measured by homogenization of 50 mg of liver in 500 uL of lysis buffer and lipids extraction in methanol:chloroform, phase extraction and evaporation. The lipids were redissolved in DMSO and triglycerides quantified with the mentioned kit and according to the manufacturers' instructions.
The bedding of single-caged mice was collected and the ingested food ingestion from the individual mice was assessed. All the stools were manually collected. After overnight dissecation at 60° C., the samples were weighted and frozen for further analysis. The amount of feces produced per mouse was compared to the amount of food consumed and the weight gain. About 3 g of dried feces material were homogenized and 1 g was pressed into a tablet and accurately weighted. Calorie content from feces and diet was measured in duplicates in a 6400 Automatic Isoperibol calorimeter (Parr Instrument Company). To analyze energy excreted, the amount of energy in feces was compared to the amount of energy ingested (the product between grams of food and caloric content of the food). Lipids extraction from feces was performed as previously described (Kraus, Yang et al., 2015).
Proteins from tissues and cell culture were extracted with RIPA buffer supplemented with phosphatase and protease inhibitor (PPI, Thermo Fisher Scientific). Protein concentration was measured by Pierce™ BCA Protein Assay Kit (Thermo Fisher Scientific) following the manufacturer's protocol. Reduced protein extracts were separated on 10% SDS-PAGE gels by electrophoresis and transferred to PVDF membranes under wet transfer. Membranes were blocked in 5% (w/v) milk in TBS-T before overnight probing with indicated primary antibodies at 4° C., followed by TBS-T washes and incubation with corresponding secondary antibody.

lipid transport through the Caco2 monolayer [1]	SMILES	course of atherosclerosis [2]	obesity induced by a high-fat diet (summary statement) [3]
significant reduction in lipid transport	CC(C)(C)n1nc(Cc2cccc3ccccc23)c2c(N)ncnc21 [1-NM-PP1, 1-(tert-butyl)-3-(nafthalen-1-ylmethyl)-1H-pirazol[3,4-d]pyrimidine-4-amine]	–	–
–	CC(C)c1c(C(=O)Nc2ccccc2)c(-c2ccccc2)c(-c2ccc(F)cc2)n1CC[C@@H](O)C[C@@H](O)CC(=O)O [Atorvastatin]	efficiently attenuating the course of atherosclerosis	–
significant reduction in lipid transport	O=C(Nc1ccc(CN2CCOCC2)cc1)c1ccc(-c2cccc(Cl)c2)o1 [CID2011756]	–	–

SMILES	lipid transport through the Caco2 monolayer [1]	course of atherosclerosis [2]	obesity induced by a high-fat diet (summary statement) [3]
O=C1NCCCc2c1oc1ccc(O)cc21 [CID755673]	significant reduction in lipid transport	–	significantly reduces obesity induced by a high-fat diet
